{"source": "patent US10975123B2", "about": "“Mutant Akt-specific capture agents, compositions, and methods of using and making” (California Institute of Technology, priority 2014, dated 2021)", "key": {"full length Akt1E17K": {"biological_target": "full length Akt1E17K (Homo sapiens, UniProt P31749, E17K)", "sequence (P31749 whole entry E17K)": "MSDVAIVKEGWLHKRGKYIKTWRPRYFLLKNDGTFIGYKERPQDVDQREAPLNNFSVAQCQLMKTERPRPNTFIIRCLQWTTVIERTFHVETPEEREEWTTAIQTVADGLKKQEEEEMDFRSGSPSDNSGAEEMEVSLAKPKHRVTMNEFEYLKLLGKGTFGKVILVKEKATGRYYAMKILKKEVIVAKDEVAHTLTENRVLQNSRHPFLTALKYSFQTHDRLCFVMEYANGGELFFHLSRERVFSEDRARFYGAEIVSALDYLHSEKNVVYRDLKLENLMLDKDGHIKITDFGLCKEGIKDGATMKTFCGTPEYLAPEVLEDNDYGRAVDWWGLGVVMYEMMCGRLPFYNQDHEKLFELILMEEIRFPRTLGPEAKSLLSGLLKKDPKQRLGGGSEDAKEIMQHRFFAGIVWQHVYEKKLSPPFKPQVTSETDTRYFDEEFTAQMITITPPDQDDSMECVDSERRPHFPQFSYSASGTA", "experiment": "Fluorescence polarization binding to full-length E17K Akt1", "settings": "yleaf peptide 4, fluorescence polarization in solution, triplicate", "protocol": "FIG. 2: Anchor ligand structure and characterization. (FIG. 2A) The peptide anchor ligand, yleaf (SEQ ID NO: 43), which was discovered using the epitope-targeting technique. The different sets of R groups indicate the modifications that were made to perform the various experiments described. (FIG. 2B) Point ELISA for specificity obtained by immobilizing biotinylated yleaf (SEQ ID NO: 43) anchor ligand 2 onto a Neutravidin plate, then incubating with a 6 His-tagged epitope (“6 His” disclosed as SEQ ID NO: 4) 3. […] (FIG. 2C) Binding curves of yleaf (SEQ ID NO: 43) anchor ligand 4 to the full-length WT or E17K mutant Akt1 proteins obtained in solution by fluorescence polarization. A saturation point for the WT ligand was not reached due to the prohibitively high protein concentration required. (FIG. 2D) Full binding curves of yleaf (SEQ ID NO: 43) anchor ligand 4 to the WT or E17K mutant epitopes. […] All assays were performed in triplicate and averaged. Error bars indicate standard deviation.\nFIG. 5: The PCC agent triligand development strategy, structure, and inhibition data. (FIG. 5A) The yleaf (SEQ ID NO: 43) anchor ligand with a C-terminal alkyne 2 was screened against an azide-terminated library in the presence of the full-length PH Domain to identify a biligand. The biligand 7 was then appended with an N-terminal azide and screened against an alkyne library to identify a triligand. […]"}, "[1]": {"biological_target": "T1, E17K PH Domain binding to PIP3 (Homo sapiens, UniProt P31749, E17K)", "T1 construct": "2 μg of either wildtype or mutant PH Domain-GFP protein (234 nM); made in house; host or cells: HEK-293-6E (used as cell lysate, not purified)", "T1 sequence (P31749 5-108 E17K limits assumed)": "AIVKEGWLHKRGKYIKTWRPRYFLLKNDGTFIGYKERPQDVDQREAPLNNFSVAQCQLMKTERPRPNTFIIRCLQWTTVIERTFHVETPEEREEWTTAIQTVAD", "experiment": "PIP3 agarose inhibition assay, E17K", "format": "biochemical", "settings": "ligand 2.38 μM (10x protein), protein 234 nM, western blot, in words", "description": "The yleaf ligand, the biligand, and the triligand were all tested for their ability to block the E17K PHD binding with PIP3. For this test, PIP3-coated resin (Echelon Biosciences) was used to mimic the PHD interaction with the cell membrane, and could be used to bind the protein as in an immunoprecipitation assay^22. The presence of an effective blocking compound would reduce the ability of the resin to capture the protein, and would thus appear as a diminished signal in the corresponding western blot assay. A control lane containing no capture agent was used to show baseline binding of the protein to the PIP3 resin. […] In an expanded study, we compared the amount of E17K and WT PH domain binding relative to the amount of added triligand (FIG. 5e).\nPIP3 Agarose beads (Echelon) were used to detect for the inhibition of PH Domain binding to its substrate, PIP3, upon incubation with the anchor candidate peptide ligands. To test the inhibition of each of the ligands, anchor biligand and triligand, 20 μL of resin slurry was added to each of four tubes and washed three times with 1×TBS. Protein, 2 μg (234 nM) of E17K mutant, was preincubated for one hour at room temperature with either DMSO (no protein blank), anchor, biligand or triligand at 2.38 μM (10× in relation to protein) in 200 μL of 1×TBS. For the control, mutant PH Domain was incubated with 1×TBS and 1 μL […] to mimic the ligand conditions. These protein samples were then added to PIP3 agarose in a Spin-X tube and incubated at room temperature for two hours. The resin was washed three times with 1×TBS with 0.25% IGEPAL CA-630, spun out to dry completely, then denatured with 50 μL 3×SDS gel loading buffer for 10 min at 95° C. The gel loading buffer was spun out of the resin and detected via western blot as per the Streptavidin-Agarose Pulldowns. Inhibition was indicated by a decrease in the amount of PH Domain that was pulled down by the resin.\nExpanded inhibition blots with either WT of E17K mutant protein were performed in a similar fashion. Twelve tubes of 20 μL of PIP3 agarose were washed three times with 1×TBS. 2 μg of either wildtype or mutant PH Domain-GFP protein (234 nM) in 200 uL 1×TBS were preincubated for 30 minutes with differing concentrations of triligand: 0.1 eq (23.4 nM), 1 eq (234 nM), 10 eq (2.34 μM), 100 eq (23.4 μM), and 1000 eq (234 μM). The protein and triligand solutions were then incubated with the PIP3 resin for 2 hours at room temperature. The resins were washed, eluted, and blotted as per all PH Domain western blots."}, "[2]": {"tested_on": "E17K 33-mer epitope vs WT 33-mer epitope (6His-tagged)", "experiment": "Point ELISA with anchor ligand and 33-mer epitope", "format": "binding", "settings": "PEG-biotin-modified yleaf on neutravidin plate; epitope 100 nM-1 μM, in words", "protocol": "The selectivity of the yleaf (SEQ ID NO: 43) peptide for the E17K 33-mer epitope was also tested in an ELISA assay format. For these assays, the WT or E17K 33-mer peptide fragments were captured using the PEG-biotin-modified yleaf (SEQ ID NO: 43) ligand immobilized on a neutravidin-coated plate.\nFor these assays, 100 nM Biotin-PEG5-yleaf (SEQ ID NO: 43) (FIG. 12) was immobilized for one hour on a neutravidin-coated ELISA plate (Pierce). The plate was blocked in 5% BSA in 1×TBS for one hour, then again overnight at room temperature. The immobilized anchor was then incubated with either 1 μM or 100 nM wildtype 33-mer epitope or 1 μM or 100 nM E17K mutant 33-mer epitope for one hour. The plate was washed three times with 1×TBS+0.1% Tween-20 and tapped dry. The epitope was then detected by a 1:1,000 dilution of an anti-his mouse mAb (ab18184, Abcam) for one hour, washed as above, and then detected with 1:10,000 dilution of an anti-mouse HRP-conjugated goat pAb (Abcam) for one hour. The plate was once again washed and developed with a 1:1 TMB substrate (KMB) for 15 minutes. To graph the data, the blank (epitope and antibodies binding to plate with no anchor ligand present) was subtracted from the triplicate sample values. […] The triplicate values were then graphed (FIG. 1C) with their error bars and the p-values were calculated by GraphPad."}}, "note": "Entries after “also recorded” stand apart in the source; their conditions may differ. Where a SMILES comes first, the peptide text is derived from it. [ ]: non-standard residue; d: D form."}
{"smiles": "CC(C)C[C@@H](NC(=O)[C@H](N)Cc1ccc(O)cc1)C(=O)N[C@H](CCC(=O)O)C(=O)N[C@H](C)C(=O)N[C@H](Cc1ccccc1)C(N)=O", "note": "[yleaf] (H-[dY][dL][dE][dA][dF]-NH2; N-terminus assumed)", "values": [{"measurement": "Kd", "setting": "full length Akt1E17K", "value": "54 ± 7", "unit": "nM"}, {"measurement": "inhibition of E17K PH Domain binding to PIP3-coated resin", "setting": "[1]", "value": "did not exhibit evidence of inhibition; also recorded: no change in E17K binding ability"}, {"measurement": "selectivity for E17K 33-mer fragment over WT in point ELISA", "setting": "[2]", "value": "significant selectivity for the E17K fragment over the WT"}]}
